For test [1], the system named is chronic myeloid leukemia (CML). Kind of test: Case report: chronic myeloid leukemia patient, DDW with Litaril, then STI 571 (Gleevec). It is filed as in vivo, human. On the procedure: b/ In a young patient in 1998, chronic myeloid leukemia (CML) was diagnosed, and was medicated with Litaril because of high WBC count. […] In February 2001 the patient was enrolled in the clinical trial of the drug candidate STI 571 (Gleevec). By August 2001, bone marrow damage decreased to 66% from the previous 80%.
(§1) DdU units used in the treatment were determined as described in Example 1 and 2.

The test system of test [2] is prostate cancer with bone metastasis. The test is described as follows: Prostate cancer case reports: PSA tumor marker and remission versus DDW consumption. It counts as in vivo, human. The note with it: patient, PSA over 1000 ng/mL, before start of DDW. Here is the method:
FIG. 1: Data of a patient with prostate cancer and bone metastasis, with extremely high PSA level (1000 ng/mL). Beside conventional treatment, DDW was also applied. In spite of the potentially bad prognosis the patient remained in regression for 9 years. PSA level: left Y axis and broken line; DDW dose: right Y axis and solid line.
FIG. 2: patient with prostate cancer and extreme PSA levels. […] Interrupting the DDW cure caused increasing PSA levels, and after finishing DDW consumption in December 2009 PSA was soaring. Broken line: PSA level, solid line: DDW dose.
Patient 2 (FIG. 1) had bone metastasis in the early phase of the disease, PSA was over 1000 ng/mL. […] They started consuming DDW in April 2003, 640 days (=21.3 months) after diagnosing bone metastasis with 15.0 ng/mL PSA. They consumed DDW for nearly one year at DdU of 1.0. A break of 6 months followed this cure, during which the disease progressed and PSA increased from 1 to 4.34 ng/mL. A new DDW cure brought regression and PSA below 1 ng/mL. 4 years after diagnosis, Androcure was replaced with Suprefact. Further DDW treatments (see FIG. 1 for DdU values) PSA was decreased in the following 3 years and the patient had no complaints in spite of the existing bone metastasis and the generally bad prognosis. […]

For another test, the system named is HT199 melanoma cell line. The test is described as follows: In vitro growth of melanoma cells with DDW, doxorubicin and their combination. It is filed as cell-based. Conditions: 450 and 900 nM in normal (150 ppm D) medium. On the procedure:
Curves 4 and 6 show the inhibition by DDW plus the mentioned two concentrations of doxorubicin.
In the experiment, the effect of DDW, doxorubicin, and their combination was tested on HT199 melanoma cell line.

The next test relates to breast cancer. Conditions: Taxotere without DDW, general experience; cited from earlier work.
For another test, the system named is kidney tumor. The test is described as follows: Case report: kidney tumor patient, Sutent with and without DDW. It is filed as in vivo, human. On the procedure:
c/ With another tyrosine kinase inhibiting agent, Sutent, a similar positive interaction was found. In one patient, kidney tumor was diagnosed in spring 2003 and was surgically removed. Up to spring 2006, three further operations were necessary because of the disease recidivating.
as §1

The source of these data is patent US20140127194A1, “COMBINED PHARMACEUTICAL COMPOSITIONS FOR THE TREATMENT OF TUMORS” (HYD Rákkutató és Gyógyszerfejlesztö Kft., priority 2011, published 2014).

Molecules are shown by their SMILES.

For `Cc1ccc(NC(=O)c2ccc(CN3CCN(C)CC3)cc2)cc1Nc1nccc(-c2cccnc2)n1` [STI 571], the disease status result in test [1] (one CML patient consuming DDW and on STI 571, April 2002) is reported as “fully negative”. In addition, the bone marrow damage in test [1] (one CML patient consuming DDW, STI 571 from February 2001, by August 2001, previously 80%) is 66%.

On to `CC(=O)O[C@]1(C(C)=O)CC[C@H]2[C@@H]3C=C(Cl)C4=CC(=O)[C@@H]5C[C@@H]5[C@]4(C)[C@H]3CC[C@@]21C` [Androcure], for which the PSA change entry in test [2] was “PSA was rapidly lowered”.

In the case of `COc1cccc2c1C(=O)c1c(O)c3c(c(O)c1C2=O)C[C@@](O)(C(=O)CO)C[C@@H]3O[C@H]1C[C@H](N)[C@H](O)[C@H](C)O1` [doxorubicin], the “effect on growth of melanoma cells” value in the test on HT199 melanoma cell line was “inhibitory effect”.

For `CC(=O)O[C@@]12CO[C@@H]1C[C@H](O)[C@@]1(C)C(=O)[C@H](O)C3=C(C)[C@@H](OC(=O)[C@H](O)[C@@H](NC(=O)OC(C)(C)C)c4ccccc4)C[C@@](O)([C@@H](OC(=O)c4ccccc4)[C@H]21)C3(C)C` [Taxotere, docetaxel], the MST in the test on breast cancer was 20-22 months.

In the case of `C[C@]12CC[C@@H]3c4ccc(OC(=O)N(CCCl)CCCl)cc4CC[C@H]3[C@@H]1CC[C@@H]2OP(=O)(O)O` [Estracyt], in test [2], the PSA change result is “PSA was rapidly lowered”.

Consider `CCN(CC)CCNC(=O)c1c(C)[nH]c(/C=C2\C(=O)Nc3ccc(F)cc32)c1C` [Sutent], for which the tumor response result is reported as “efficient initially” with kidney tumor (one kidney tumor patient, Sutent without DDW, progression again in March 2007) and “the tumors shrank again” with kidney tumor (same patient, DDW in parallel with Sutent from autumn 2007). Further, the “tumor response on images” value with kidney tumor (same patient, DDW in parallel with Sutent, three years later) was “ongoing decrease of the tumor sizes”.
